According to patent US20230092890A1, “1, 3, 4-Oxadiazole derivative compounds as histone deacetylase 6 inhibitor, and the pharmaceutical composition comprising the same” (Chong Kun Dang Pharmaceutical Corp., priority 2019, published 2023):

How the values were obtained:
HDAC6 human recombinant = target: T1, HDAC6 human recombinant (Homo sapiens, UniProt Q9UBN7); assay: HDAC enzyme activity inhibition (in vitro), HDAC6 assay; type: biochemical; conditions: samples at 0.1, 1, 10, 100 and 1000 nM; 37° C. 60 minutes; fluorescence Ex 390, Em 460; read-out: HDAC6 IC50
T1 construct: purchased Calbiochem 382180
T1 sequence (Q9UBN7 1-1215): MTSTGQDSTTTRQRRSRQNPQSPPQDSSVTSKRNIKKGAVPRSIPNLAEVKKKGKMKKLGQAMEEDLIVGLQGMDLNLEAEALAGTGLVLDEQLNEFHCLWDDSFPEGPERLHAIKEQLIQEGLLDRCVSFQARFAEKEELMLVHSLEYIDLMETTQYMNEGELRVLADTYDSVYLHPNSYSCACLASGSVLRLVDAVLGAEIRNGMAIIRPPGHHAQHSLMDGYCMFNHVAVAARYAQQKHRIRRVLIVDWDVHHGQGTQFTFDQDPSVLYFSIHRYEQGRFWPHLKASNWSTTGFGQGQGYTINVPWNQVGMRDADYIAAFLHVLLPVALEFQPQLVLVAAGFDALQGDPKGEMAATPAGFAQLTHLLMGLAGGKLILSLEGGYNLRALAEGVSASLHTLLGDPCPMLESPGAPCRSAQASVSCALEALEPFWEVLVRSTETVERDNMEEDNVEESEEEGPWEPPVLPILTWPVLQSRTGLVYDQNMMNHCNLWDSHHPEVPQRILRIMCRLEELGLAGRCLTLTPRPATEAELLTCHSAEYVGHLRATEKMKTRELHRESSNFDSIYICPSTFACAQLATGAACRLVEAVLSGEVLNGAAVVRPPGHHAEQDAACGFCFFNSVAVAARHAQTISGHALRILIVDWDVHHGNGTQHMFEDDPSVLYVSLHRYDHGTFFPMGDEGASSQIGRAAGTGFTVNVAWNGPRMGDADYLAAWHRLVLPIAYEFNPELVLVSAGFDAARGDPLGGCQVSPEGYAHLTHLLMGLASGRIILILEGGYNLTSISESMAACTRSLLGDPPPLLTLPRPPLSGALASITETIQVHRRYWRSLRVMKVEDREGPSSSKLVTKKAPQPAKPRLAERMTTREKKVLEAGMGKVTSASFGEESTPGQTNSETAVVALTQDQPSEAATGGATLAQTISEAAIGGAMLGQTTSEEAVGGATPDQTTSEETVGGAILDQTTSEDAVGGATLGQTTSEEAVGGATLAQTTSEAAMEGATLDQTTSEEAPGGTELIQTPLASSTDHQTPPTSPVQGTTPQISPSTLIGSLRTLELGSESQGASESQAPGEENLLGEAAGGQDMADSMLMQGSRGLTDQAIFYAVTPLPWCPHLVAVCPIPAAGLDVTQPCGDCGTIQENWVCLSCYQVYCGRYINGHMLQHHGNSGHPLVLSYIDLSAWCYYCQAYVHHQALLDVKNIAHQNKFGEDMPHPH
Outline: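 HDAC6 human recombinant enzyme with fluorimetric substrate; […]. Reaction 60 min at 37° C, then developer 30 min at 37° C; fluorescence read at Ex 390/Em 460.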

HDAC1 = target: T2, HDAC1 (Homo sapiens, UniProt Q13547); assay: HDAC enzyme activity inhibition (in vitro), HDAC1 Fluorimetric Drug Discovery Assay Kit; type: biochemical; conditions: samples at 100, 1000 and 10000 nM; 37° C. 60 minutes; fluorescence Ex 390, Em 460; read-out: HDAC1 IC50
T2 construct: purchased Enzolifesciences BML-AK511
Outline: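 Compounds at 100, 1000, 10000 nM (HDAC1) or 0.1, 1, 10, 100, 1000 nM (HDAC6); 37° C, 60 min; developer, 37° C, 30 min; fluorescence Ex 390/Em 460.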

T2 sequence (Q13547 whole entry): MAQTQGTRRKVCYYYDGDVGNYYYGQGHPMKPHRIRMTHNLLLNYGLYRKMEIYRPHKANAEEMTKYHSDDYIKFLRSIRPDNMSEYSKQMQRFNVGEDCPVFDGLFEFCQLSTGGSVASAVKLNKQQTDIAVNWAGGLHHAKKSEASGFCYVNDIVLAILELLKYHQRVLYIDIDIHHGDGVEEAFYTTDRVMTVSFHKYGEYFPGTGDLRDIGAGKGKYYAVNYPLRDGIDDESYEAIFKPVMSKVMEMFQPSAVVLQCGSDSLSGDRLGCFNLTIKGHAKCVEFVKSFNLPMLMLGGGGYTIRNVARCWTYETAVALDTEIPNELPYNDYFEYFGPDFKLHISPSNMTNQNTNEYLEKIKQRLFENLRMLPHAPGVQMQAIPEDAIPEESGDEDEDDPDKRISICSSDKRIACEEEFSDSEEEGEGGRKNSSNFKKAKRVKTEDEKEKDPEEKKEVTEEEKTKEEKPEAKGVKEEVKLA

| Compound | IC50 (HDAC6 human recombinant) | IC50 (HDAC1) |
| --- | --- | --- |
| O=C(c1cncnc1)N1CCC(n2c(=O)n(Cc3ccc(-c4nnc(C(F)F)o4)cn3)c3cc(F)ccc32)CC1 [Compound 64, 3-((5-(5-(difluoromethyl)-1,3,4-oxadiazole-2-yl)pyridine-2-yl)methyl)-5-fluoro-1-(1-(pyrimidine-5-carbonyl)piperidine-4-yl)-1,3-dihydro-2H-benzo[d]imidazole-2-one] | 44 nM | > 10000 nM |
| Cc1oncc1C(=O)N1CCC(n2c(=O)n(Cc3ccc(-c4nnc(C(F)F)o4)cn3)c3cc(F)ccc32)CC1 [Compound 65, 3-((5-(5-(difluoromethyl)-1,3,4-oxadiazole-2-yl)pyridine-2-yl)methyl)-5-fluoro-1-(1-(5-methylisooxazole-4-carbonyl)piperidine-4-yl)-1,3-dihydro-2H-benzo[d]imidazole-2-one] | 84 nM | > 10000 nM |
| Cc1ccc(C(=O)N2CCC(n3c(=O)n(Cc4ccc(-c5nnc(C(F)F)o5)cn4)c4cc(F)ccc43)CC2)o1 [Compound 66, 3-((5-(5-(difluoromethyl)-1,3,4-oxadiazole-2-yl)pyridine-2-yl)methyl)-5-fluoro-1-(1-(5-methylfuran-2-carbonyl)piperidine-4-yl)-1,3-dihydro-2H-benzo[d]imidazole-2-one] | 72 nM | > 10000 nM |
| O=c1n(Cc2ccc(-c3nnc(C(F)F)o3)cc2F)c2cc(F)ccc2n1C1CCN(C2CCSCC2)CC1 [Compound 73, 3-(4-(5-(difluoromethyl)-1,3,4-oxadiazole-2-yl)-2-fluorobenzyl)-5-fluoro-1-(1-(tetrahydro-2H-thiopyran-4-yl)piperidine-4-yl)-1,3-dihydro-2H-benzo[d]imidazole-2-one] | 80 nM | > 10000 nM |
| O=c1n(Cc2ccc(-c3nnc(C(F)F)o3)cc2F)c2cc(F)ccc2n1C1CCN(C2CCC2)CC1 [Compound 74, 1-(1-cyclobutylpiperidine-4-yl)-3-(4-(5-(difluoromethyl)-1,3,4-oxadiazole-2-yl)-2-fluorobenzyl)-5-fluoro-1,3-dihydro-2H-benzo[d]imidazole-2-one] | 70 nM | > 10000 nM |
| CC(=O)N1CCC(n2c(=O)n(Cc3ccc(-c4nnc(C(F)F)o4)cc3F)c3cc(F)ccc32)CC1 [Compound 75] | 46 nM | > 10000 nM |
| O=c1n(Cc2ccc(-c3nnc(C(F)F)o3)cn2)c2ccccc2n1C1CCN(C2COC2)CC1 [Compound 78, 1-((5-(5-(difluoromethyl)-1,3,4-oxadiazole-2-yl)pyridine-2-yl)methyl)-3-(1-(oxetan-3-yl)piperidine-4-yl)-1,3-dihydro-2H-benzo[d]imidazole-2-one] | 79 nM | > 10000 nM |
| CN1CCC(n2c(=O)n(Cc3ccc(-c4nnc(C(F)F)o4)cc3)c3cc(F)ccc32)CC1 [Compound 79, 3-(4-(5-(difluoromethyl)-1,3,4-oxadiazole-2-yl)benzyl)-5-fluoro-1-(1-methylpiperidine-4-yl)-1,3-dihydro-2H-benzo[d]imidazole-2-one] | 66 nM | > 10000 nM |
| O=c1n(Cc2ccc(-c3nnc(C(F)F)o3)cc2)c2cc(F)ccc2n1C1CCN(C2COC2)CC1 [Compound 80, 3-(4-(5-(difluoromethyl)-1,3,4-oxadiazole-2-yl)benzyl)-5-fluoro-1-(1-(oxetan-3-yl)piperidine-4-yl)-1,3-dihydro-2H-benzo[d]imidazole-2-one] | 61 nM | > 10000 nM |
| CN1CCC(n2c(=O)n(Cc3ccc(-c4nnc(C(F)F)o4)cn3)c3cc(F)c(F)cc32)CC1 [Compound 83, 1-((5-(5-(difluoromethyl)-1,3,4-oxadiazole-2-yl)pyridine-2-yl)methyl)-5,6-difluoro-3-(1-methylpiperidine-4-yl)-1,3-dihydro-2H-benzo[d]imidazole-2-one] | 49 nM | > 10000 nM |

These reach a lower IC50 (HDAC6 human recombinant). Values come first.

| IC50 (HDAC6 human recombinant) | IC50 (HDAC1) | Compound |
| --- | --- | --- |
| 41 nM | > 10000 nM | COCCC(=O)N1CCC(n2c(=O)n(Cc3ccc(-c4nnc(C(F)F)o4)cn3)c3cc(F)ccc32)CC1 [Compound 67, 3-((5-(5-(difluoromethyl)-1,3,4-oxadiazole-2-yl)pyridine-2-yl)methyl)-5-fluoro-1-(1-(3-methoxypropanoyl)piperidine-4-yl)-1,3-dihydro-2H-benzo[d]imidazole-2-one] |
| 35 nM | > 10000 nM | O=c1n(Cc2ccc(-c3nnc(C(F)F)o3)cn2)c2c(F)cccc2n1C1CCN(C2COC2)CC1 [Compound 77, 3-((5-(5-(difluoromethyl)-1,3,4-oxadiazole-2-yl)pyridine-2-yl)methyl)-4-fluoro-1-(1-(oxetan-3-yl)piperidine-4-yl)-1,3-dihydro-2H-benzo[d]imidazole-2-one] |
| 34 nM | > 10000 nM | COC(=O)N1CCC(n2c(=O)n(Cc3ccc(-c4nnc(C(F)F)o4)cn3)c3cc(F)ccc32)CC1 [Compound 68, Methyl 4-(3-((5-(5-(difluoromethyl)-1,3,4-oxadiazole-2-yl)pyridine-2-yl)methyl)-5-fluoro-2-oxo-2,3-dihydro-1H-benzo[d]imidazole-1-yl)piperidine-1-carboxylate] |
| 31 nM | > 10000 nM | CC(C)N1CCC(n2c(=O)n(Cc3ccc(-c4nnc(C(F)F)o4)cc3F)c3cc(F)ccc32)CC1 [Compound 70, 3-(4-(5-(difluoromethyl)-1,3,4-oxadiazole-2-yl)-2-fluorobenzyl)-5-fluoro-1-(1-isopropylpiperidine-4-yl)-1,3-dihydro-2H-benzo[d]imidazole-2-one] |
| 31 nM | > 10000 nM | CN1CCC(n2c(=O)n(Cc3ccc(-c4nnc(C(F)F)o4)cn3)c3c(F)cccc32)CC1 [Compound 76, 3-((5-(5-(difluoromethyl)-1,3,4-oxadiazole-2-yl)pyridine-2-yl)methyl)-4-fluoro-1-(1-methylpiperidine-4-yl)-1,3-dihydro-2H-benzo[d]imidazole-2-one] |
| 28 nM | > 10000 nM | CN1CCC(n2c(=O)n(Cc3ccc(-c4nnc(C(F)F)o4)cc3F)c3cc(F)ccc32)CC1 [Compound 69, 3-(4-(5-(difluoromethyl)-1,3,4-oxadiazole-2-yl)-2-fluorobenzyl)-5-fluoro-1-(1-methylpiperidine-4-yl)-1,3-dihydro-2H-benzo[d]imidazole-2-one] |
| 26 nM | > 10000 nM | O=c1n(Cc2ccc(-c3nnc(C(F)F)o3)cc2F)c2cc(F)ccc2n1C1CCN(C2CCOCC2)CC1 [Compound 72, 3-(4-(5-(difluoromethyl)-1,3,4-oxadiazole-2-yl)-2-fluorobenzyl)-5-fluoro-1-(1-(tetrahydro-2H-pyran-4-yl)piperidine-4-yl)-1,3-dihydro-2H-benzo[d]imidazole-2-one] |
| 23 nM | > 10000 nM | O=c1n(Cc2ccc(-c3nnc(C(F)F)o3)cn2)c2cc(Cl)c(Cl)cc2n1C1CCN(C2COC2)CC1 [Compound 82, 5,6-dichloro-1-((5-(5-(difluoromethyl)-1,3,4-oxadiazole-2-yl)pyridine-2-yl)methyl)-3-(1-(oxetan-3-yl)piperidine-4-yl)-1,3-dihydro-2H-benzo[d]imidazole-2-one] |
| 19 nM | > 10000 nM | O=c1n(Cc2ccc(-c3nnc(C(F)F)o3)cc2F)c2cc(F)ccc2n1C1CCN(C2COC2)CC1 [Compound 71, 3-(4-(5-(difluoromethyl)-1,3,4-oxadiazole-2-yl)-2-fluorobenzyl)-5-fluoro-1-(1-(oxetan-3-yl)piperidine-4-yl)-1,3-dihydro-2H-benzo[d]imidazole-2-one] |
| 15 nM | > 10000 nM | CN1CCC(n2c(=O)n(Cc3ccc(-c4nnc(C(F)F)o4)cn3)c3cc(Cl)c(Cl)cc32)CC1 [Compound 81, 5,6-dichloro-1-((5-(5-(difluoromethyl)-1,3,4-oxadiazole-2-yl)pyridine-2-yl)methyl)-3-(1-methylpiperidine-4-yl)-1,3-dihydro-2H-benzo[d]imidazole-2-one] |
